Measured values reported in BindingDB's records for doi:10.1111/cbdd.12609 (Tehran University of Medical Sciences, 2015).

Assays:
[1] = biological target: Carboxylic ester hydrolase (Equus caballus, UniProt Q9N1N9); assay: AChE and BChE Inhibition Assay; conditions: pH 8; 25 °C
Procedure: (§1) To evaluate in vitro AChE activity, modified Ellman's method was performed using a 96-well plate reader (BioTek ELx808, Highland Park, IL, USA). Each well contained 50 µL potassium phosphate buffer (KH2PO4/K2HPO4, 0.1 M, pH 8), 25 µL sample dissolved in 50% methanol and 50% DMSO, and 25 µL enzyme (final concentration 0.22 U/mL in buffer). They were preincubated for 20 min at room temperature, and then, 125 µL DTNB (3 mM in buffer) was added. […] The IC50 values were determined graphically from inhibition curves (log inhibitor concentration versus percent of inhibition). A control experiment was performed under the same conditions without inhibitor and the blank contained buffer, DMSO, DTNB, and substrate. The described method was also used for BChE inhibition assa

Acetylcholinesterase = Acetylcholinesterase (Electrophorus electricus, UniProt O42275); assay: AChE and BChE Inhibition Assay; conditions: pH 8; 25 °C
Procedure: as §1

Sequence of Carboxylic ester hydrolase (Q9N1N9 whole entry): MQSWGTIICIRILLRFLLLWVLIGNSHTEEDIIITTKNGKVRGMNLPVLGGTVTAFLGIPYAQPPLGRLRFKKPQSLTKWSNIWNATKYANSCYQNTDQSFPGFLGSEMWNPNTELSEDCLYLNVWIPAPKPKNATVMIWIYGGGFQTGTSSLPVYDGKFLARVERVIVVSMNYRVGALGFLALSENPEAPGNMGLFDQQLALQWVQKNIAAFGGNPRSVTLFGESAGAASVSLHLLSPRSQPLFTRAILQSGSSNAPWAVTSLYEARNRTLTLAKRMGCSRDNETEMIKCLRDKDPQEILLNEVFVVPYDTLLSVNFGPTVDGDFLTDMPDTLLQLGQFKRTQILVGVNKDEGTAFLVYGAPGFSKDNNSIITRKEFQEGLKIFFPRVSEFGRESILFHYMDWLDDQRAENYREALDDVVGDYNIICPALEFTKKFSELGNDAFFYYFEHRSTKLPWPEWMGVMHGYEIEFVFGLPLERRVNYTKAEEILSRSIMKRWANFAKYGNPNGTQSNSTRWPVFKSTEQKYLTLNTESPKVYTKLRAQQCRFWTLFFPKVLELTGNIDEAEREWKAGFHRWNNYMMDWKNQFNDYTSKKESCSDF
Sequence of Acetylcholinesterase (O42275 whole entry): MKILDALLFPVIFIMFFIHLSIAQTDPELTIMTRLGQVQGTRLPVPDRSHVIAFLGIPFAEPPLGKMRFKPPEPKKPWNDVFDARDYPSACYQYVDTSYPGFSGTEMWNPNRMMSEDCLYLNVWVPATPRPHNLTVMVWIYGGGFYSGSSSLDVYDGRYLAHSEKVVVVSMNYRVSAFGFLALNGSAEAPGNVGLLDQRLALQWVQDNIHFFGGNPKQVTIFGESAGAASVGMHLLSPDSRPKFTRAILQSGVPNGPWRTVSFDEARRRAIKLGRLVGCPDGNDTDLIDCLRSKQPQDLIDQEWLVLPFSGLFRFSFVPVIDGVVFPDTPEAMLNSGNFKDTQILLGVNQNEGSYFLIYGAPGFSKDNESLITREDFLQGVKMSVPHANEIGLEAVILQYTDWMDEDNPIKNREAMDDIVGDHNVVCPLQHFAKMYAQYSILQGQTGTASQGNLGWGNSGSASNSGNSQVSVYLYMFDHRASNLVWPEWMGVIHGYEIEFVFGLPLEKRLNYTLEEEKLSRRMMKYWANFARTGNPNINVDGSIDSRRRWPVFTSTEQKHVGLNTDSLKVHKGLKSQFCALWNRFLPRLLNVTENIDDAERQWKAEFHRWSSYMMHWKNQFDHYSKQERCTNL

Structure (SMILES) | IC50 [1] | IC50 (Acetylcholinesterase)
O=c1c2ccccc2n(Cc2cn(Cc3nc(-c4ccc(Cl)cc4)no3)nn2)c2ccc(Br)cc12 [2-Bromo-10-((1-((3-(4-chlorophenyl)-1,2,4-oxadiazol-5-yl)methyl)-1H-1,2,3-triazol-4-yl)methyl)acridin-9(10H)-one (10p)] | > 100 µM | > 100 µM
COc1ccc(-c2noc(Cn3cc(Cn4c5ccccc5c(=O)c5cc(Br)ccc54)nn3)n2)cc1 [2-Bromo-10-((1-((3-(4-methoxyphenyl)-1,2,4-oxadiazol-5-yl)methyl)-1H-1,2,3-triazol-4-yl)methyl)acridin-9(10H)-one (10o)] | > 100 µM | > 100 µM
O=c1c2ccccc2n(Cc2cn(Cc3nc(-c4ccc(Cl)cc4)no3)nn2)c2ccc(Cl)cc12 [2-Chloro-10-((1-((3-(4-chlorophenyl)-1,2,4-oxadiazol-5-yl)methyl)-1H-1,2,3-triazol-4-yl)methyl)acridin-9(10H)-one (10n)] | > 100 µM | 44.9 µM
COc1ccc(-c2noc(Cn3cc(Cn4c5ccccc5c(=O)c5cc(Cl)ccc54)nn3)n2)cc1 [2-Chloro-10-((1-((3-(4-methoxyphenyl)-1,2,4-oxadiazol-5-yl)methyl)-1H-1,2,3-triazol-4-yl)methyl)acridin-9(10H)-one (10m)] | > 100 µM | > 100 µM
Cc1ccc(-c2noc(Cn3cc(Cn4c5ccccc5c(=O)c5cc(Cl)ccc54)nn3)n2)cc1 [2-Chloro-10-((1-((3-(p-tolyl)-1,2,4-oxadiazol-5-yl)methyl)-1H-1,2,3-triazol-4-yl)methyl)acridin-9(10H)-one (10l)] | > 100 µM | > 100 µM
COc1ccc(-c2noc(Cn3cc(Cn4c5ccccc5c(=O)c5cc(OC)ccc54)nn3)n2)cc1 [2-Methoxy-10-((1-((3-(4-methoxyphenyl)-1,2,4-oxadiazol-5-yl)methyl)-1H-1,2,3-triazol-4-yl)methyl)acridin-9(10H)-one (10j)] | > 100 µM | > 100 µM
COc1ccc2c(c1)c(=O)c1ccccc1n2Cc1cn(Cc2nc(-c3ccc(C)cc3)no2)nn1 [2-Methoxy-10-((1-((3-(p-tolyl)-1,2,4-oxadiazol-5-yl)methyl)-1H-1,2,3-triazol-4-yl)methyl)acridin-9(10H)-one (10i)] | > 100 µM | > 100 µM
COc1ccc(-c2noc(Cn3cc(Cn4c5ccccc5c(=O)c5cccc(Cl)c54)nn3)n2)cc1 [4-Chloro-10-((1-((3-(4-methoxyphenyl)-1,2,4-oxadiazol-5-yl)methyl)-1H-1,2,3-triazol-4-yl)methyl)acridin-9(10H)-one (10g)] | > 100 µM | > 100 µM
COc1ccc(-c2noc(Cn3cc(Cn4c5ccccc5c(=O)c5cccc(OC)c54)nn3)n2)cc1 [4-Methoxy-10-((1-((3-(4-methoxyphenyl)-1,2,4-oxadiazol-5-yl)methyl)-1H-1,2,3-triazol-4-yl)methyl)acridin-9(10H)-one (10f)] | > 100 µM | > 100 µM
COc1cccc2c(=O)c3ccccc3n(Cc3cn(Cc4nc(-c5ccc(C)cc5)no4)nn3)c12 [4-Methoxy-10-((1-((3-(p-tolyl)-1,2,4-oxadiazol-5-yl)methyl)-1H-1,2,3-triazol-4-yl)methyl)acridin-9(10H)-one (10e)] | > 100 µM | > 100 µM
O=c1c2ccccc2n(Cc2cn(Cc3nc(-c4ccc(Br)cc4)no3)nn2)c2ccccc12 [10-((1-((3-(4-Bromophenyl)-1,2,4-oxadiazol-5-yl)methyl)-1H-1,2,3-triazol-4-yl)methyl)acridin-9(10H)-one (10d)] | > 100 µM | 67.4 µM
COc1ccc2c(c1)c(=O)c1ccccc1n2Cc1cn(Cc2nc(-c3ccc(Cl)cc3)no2)nn1 [10-((1-((3-(4-Chlorophenyl)-1,2,4-oxadiazol-5-yl)methyl)-1H-1,2,3-triazol-4-yl)methyl)-2-methoxyacridin-9(10H)-one (10k)] | > 100 µM | 77.8 µM
Cc1ccc2c(c1)c(=O)c1ccccc1n2Cc1cn(Cc2nc(-c3ccc(Cl)cc3)no2)nn1 [10-((1-((3-(4-Chlorophenyl)-1,2,4-oxadiazol-5-yl)methyl)-1H-1,2,3-triazol-4-yl)methyl)-2-methylacridin-9(10H)-one (10h)] | > 100 µM | > 100 µM
O=c1c2ccccc2n(Cc2cn(Cc3nc(-c4ccc(Cl)cc4)no3)nn2)c2ccccc12 [10-((1-((3-(4-Chlorophenyl)-1,2,4-oxadiazol-5-yl)methyl)-1H-1,2,3-triazol-4-yl)methyl)acridin-9(10H)-one (10c)] | 88.9 µM | 24.7 µM
COc1ccc(-c2noc(Cn3cc(Cn4c5ccccc5c(=O)c5ccccc54)nn3)n2)cc1 [10-((1-((3-(4-Methoxyphenyl)-1,2,4-oxadiazol-5-yl)methyl)-1H-1,2,3-triazol-4-yl)methyl)acridin-9(10H)-one (10b)] | > 100 µM | 11.5 µM
Cc1ccc(-c2noc(Cn3cc(Cn4c5ccccc5c(=O)c5ccccc54)nn3)n2)cc1 [10-((1-((3-(p-Tolyl)-1,2,4-oxadiazol-5-yl)methyl)-1H-1,2,3-triazol-4-yl)methyl)acridin-9(10H)-one (10a)] | > 100 µM | 49 µM
